These results are taken from patent publication EP0292191A1, “2-(Substituted methyl)-1-alkylcarbapenem derivatives” (Merck & Co., Inc., priority 1987, dated 1988).

Details in all cases: relative to thienamycin (=1.0)
One data set deals with Serratia. In words: Agar disc-diffusion assay, relative antibacterial potency. The data set is classed as cell-based. The protocol: (§1) The antibacterial activities of the compounds of this invention illustrated in the examples were determined using the following method.
(§2) Antibacterial activities were determined by the disc-diffusion assay described by Bauer et al., Amer. J. Clin. Pathol., 45, 493 (1966), except that an agar thickness of 0.2 cm was used. Thienamycin or imipenem was used as the internal standard. For maximum reproducibility, the inner, completely clear region of the zone of inhibition was measured. Inhibiting concentration at the edge of the zone was computed for each test compound using equation (3) (rearranged) reported by Humphrey and Lightbown in J. Gen. Microbiol., 7, 129 (1952), which takes into account differing molecular weights and resulting diffusion constants. Ratios of the geometric means of the inhibitory concentrations to that of thienamycin were determined for each test compound.
(§3) Antibacterial potencies were determined using standard agar disc diffusion assays and are reported relative to thienamycin (=1.0). Dehydropeptidase-I (DHP-I) susceptibilities were determined by the method of Kropp et al., Antimicrobial Agents Chemother., 22, 62-70 (1982), and are reported relative to thienamycin (=1.0).

Another data set relates to Ps. aeruginosa. The data set is described as above. The format is cell-based. The protocol:
as §1, §2, §3

The test system of a further data set is Enterococcus. Described as above. The format is cell-based. As to the method: as §1, §2, §3
For the next data set, the system named is E. coli. The description is as above. The data set is classed as cell-based. As to the method:
as §1, §2, §3

The subject of a further data set is Klebsiella. The data set is described as above. The format is cell-based. The protocol: as §1, §2, §3
In the next data set the test system is S. aureus. Described as above. The format is cell-based. The protocol: as §1, §2, §3
The next data set has as its system Enterobacter. The data set is described as above. The format is cell-based. As to the method:
as §1, §2, §3

Another data set deals with Proteus (Ind. + and -). The data set is described as above. The data set is classed as cell-based. As to the method: as §1, §2, §3
Data set [1] relates to Dehydropeptidase-I (DHP-I). In words: Dehydropeptidase-I susceptibility (method of Kropp et al.). The format is in vitro ADME.
Excerpt: Antibacterial compounds of Formula I are of the broad class known as carbapenems or 1-carbadethiapenems. Certain of these carbapenems are susceptible to attack by a renal enzyme known as dehydropeptidase (DHP). This attack or degradation may reduce the efficacy of the carbapenem antibacterial agent. Inhibitors of DHP and their use with carbapenem antibacterial agents are disclosed in the prior art. See European Patent Applications No. 79102616.4 filed July 24, 1979 (Publication No. 0 010 573); 79102615.6, filed July 24, 1979 (Publication No. 0 007 614); and 82107174.3, filed August 9, 1982 (Publication No. 0 072 014).
as §3

Consider `C[C@@H](O)[C@H]1C(=O)N2C(C(=O)O)=C(COC(=O)N(C)C)[C@H](C)[C@H]12` [Example 7, Potassium (1S,1′R,5R,6S)-2-dimethylamino carbonyloxymethyl-6-(1′-hydroxyethyl)-1-methylcarbapen-2-em-3-carboxylate], for which the “Relative Antibacterial Potencies” value in the data set with Serratia is given as 1.4; with Ps. aeruginosa it was 0.04; in the data set on Enterococcus, 1.2; in the data set with E. coli, 0.6; with Klebsiella, 0.4; in the data set with S. aureus, 1.4. Moreover, the “Relative Antibacterial Potencies” value was 0.8 in the data set on Enterobacter; 11.3 with Proteus (Ind. + and -). This compound registered a DHP-I susceptibility in [1] of 0.29.

Regarding `C[C@@H](O)[C@H]1C(=O)N2C(C(=O)O)=C(CO)[C@H](C)[C@H]12` [Example 1, Potassium (1S,1′R,5R,6S)-2-hydroxymethyl-6-(1′-hydroxyethyl)-1-methylcarbapen-2-em-3-carboxylate], the “Relative Antibacterial Potencies” value with Serratia is 4.3; with Ps. aeruginosa it was 0.2; in the data set with Enterococcus, 1.0; in the data set on E. coli it was 2.3; in the data set on Klebsiella, 2.0; with S. aureus it was 0.4. Moreover, the “Relative Antibacterial Potencies” value was found to be 3.7 in the data set on Enterobacter; 3.0 in the data set on Proteus (Ind. + and -). The same compound returned a DHP-I susceptibility in data set [1] of 0.76.

As for `CC(=O)OCC1=C(C(=O)O)N2C(=O)[C@H]([C@@H](C)O)[C@H]2[C@H]1C` [Example 2, Potassium (1S,1′R,5R,6S)-2-acetoxymethyl-6-(1′-hydroxyethyl)-1-methylcarbapen-2-em-3-carboxylate], the “Relative Antibacterial Potencies” value is given as 12.1 with Serratia; 0.09 in the data set with Ps. aeruginosa; 2.8 in the data set with Enterococcus; 4.0 in the data set on E. coli; 2.5 with Klebsiella; 0.7 in the data set on S. aureus. The “Relative Antibacterial Potencies” value with Enterobacter turned out to be 7.0; in the data set on Proteus (Ind. + and -), 27.9. Also, the DHP-I susceptibility in data set [1] worked out at 0.52.

Turning to `C[C@@H](O)[C@H]1C(=O)N2C(C(=O)O)=C(COC(N)=O)[C@H](C)[C@H]12` [Example 4, Potassium (1S,1′R,5R,6S)-2-aminocarbonyloxy methyl-6-(1′-hydroxyethyl)-1-methylcarbapen-2-em-3-carboxylate], the “Relative Antibacterial Potencies” value came out at 32 with Serratia; 0.4 in the data set with Ps. aeruginosa; 5.7 in the data set with Enterococcus; 6.1 in the data set on E. coli; 7.0 in the data set on Klebsiella; 0.9 with S. aureus. The “Relative Antibacterial Potencies” value was 22.6 in the data set with Enterobacter; 14.9 with Proteus (Ind. + and -). Further, the DHP-I susceptibility in data set [1] is listed as 0.39.

With `C[C@@H](O)[C@H]1C(=O)N2C(C(=O)O)=C(COC(=O)Nc3ccccc3)[C@H](C)[C@H]12` [Example 6, Potassium (1S,1′R,5R,6S)-2-phenylaminocarbonyloxymethyl-6-(1′-hydroxyethyl)-1-methylcarbapen-2-em-3-carboxylate], the “Relative Antibacterial Potencies” value in the data set with Serratia came out at 0.3; in the data set with Ps. aeruginosa, 0.03; in the data set with Enterococcus it was 2.8; with E. coli it was 0.6; in the data set with Klebsiella, 0.2; in the data set on S. aureus it was 1.2. Further, the “Relative Antibacterial Potencies” value in the data set on Enterobacter worked out at 0.2; with Proteus (Ind. + and -) it was 4.9. In data set [1], this compound had a DHP-I susceptibility of 1.35.

Turning to `C[C@@H](O)[C@H]1C(=O)N2C(C(=O)O)=C(CN=[N+]=[N-])[C@H](C)[C@H]12` [Example 3, Potassium (1S,1′R,5R,6S)-2-azidomethyl-6-(1′-hydroxyethyl)-1-methylcarbapen-2-em-3-carboxylate], the “Relative Antibacterial Potencies” value in the data set on Serratia is recorded as 22.6; with Ps. aeruginosa it was 0.06; with Enterococcus, 2.0; in the data set with E. coli, 9.2; in the data set with Klebsiella, 4.3; in the data set on S. aureus, 1.4. The “Relative Antibacterial Potencies” value in the data set on Enterobacter worked out at 11.3; with Proteus (Ind. + and -) it was 29.9. This compound displayed a DHP-I susceptibility in data set [1] of 7.29.

For `C[C@@H](O)[C@H]1C(=O)N2C(C(=O)O)=C(CN)[C@H](C)[C@H]12` [Example 9, (1S,1′R,5R,6S)-2-aminomethyl-6-(1′-hydroxyethyl)-1-methylcarbapen-2-em-3-carboxylic acid], the “Relative Antibacterial Potencies” value in the data set with Serratia is 0.2; with Ps. aeruginosa, 0.4; with Enterococcus, 0.3; in the data set with E. coli it was 0.2; with Klebsiella it was 0.2; in the data set on S. aureus, 0.6. Besides, the “Relative Antibacterial Potencies” value in the data set with Enterobacter is 0.3; in the data set with Proteus (Ind. + and -), 0.2. Besides, in data set [1], the DHP-I susceptibility is on record as 0.06.

On to `C[C@@H](O)[C@H]1C(=O)N2C(C(=O)[O-])=C(COC(=O)NCC[n+]3ccccc3)[C@H](C)[C@H]12` [Example 8, (1S,1′R,5R,6S)-6-(1′-hydroxyethyl)-1-methyl-2-(2˝-pyridiniumethylaminocarbonyloxymethyl)carbapen-2-em-3-carboxylic acid], for which the “Relative Antibacterial Potencies” value with Serratia stood at 2.1; in the data set with Ps. aeruginosa it was 0.33; with Enterococcus it was 2.3; in the data set with E. coli, 0.93; in the data set on Klebsiella, 1.1; in the data set on S. aureus, 0.87. Besides, the “Relative Antibacterial Potencies” value in the data set on Enterobacter is reported as 2.1; in the data set with Proteus (Ind. + and -), 2.5. The compound also displayed a DHP-I susceptibility in data set [1] of 0.05.

Regarding `CNC(=O)OCC1=C(C(=O)O)N2C(=O)[C@H]([C@@H](C)O)[C@H]2[C@H]1C` [Example 5, Potassium (1S,1′R,5R,6S)-2-methylaminocarbonyl oxymethyl-6-(1′-hydroxyethyl)-1-methylcarbapen-2-em-3-carboxylate], the “Relative Antibacterial Potencies” value was determined as 16 in the data set on Serratia; 0.2 with Ps. aeruginosa; 3.7 in the data set with Enterococcus; 5.7 with E. coli; 7.0 in the data set on Klebsiella; 0.8 in the data set with S. aureus. The “Relative Antibacterial Potencies” value in the data set with Enterobacter was 9.8; in the data set with Proteus (Ind. + and -), 16. Moreover, the DHP-I susceptibility in data set [1] came out at 0.59.
